Some results are limits rather than exact numbers.

One assay has as its target T1, human EP2 (PTGER2) (Homo sapiens, UniProt P43116).
T1 construct: Cayman Chemical (Human EP2 Reporter Assay Kit)
Kind of assay: EP2 antagonist assay (HEK-293 CNG membrane potential cAMP assay / 293T SEAP reporter assay, PGE2-stimulated). It is filed as cell-based. The note with it: EP2 antagonist activity; concentration for 50% inhibition of signal compared to DMSO. An outline of the steps:
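Two formats. In a CRE-SEAP reporter assay, reverse-transfected 293T cells received compound with PGE2 (13 nM final) for 6-8 h, then luminescence was read. In the ACTOne CNG format, HEK-293 cells were preincubated with compound for 15 min at RT, stimulated with 5 nM PGE2 for 30 min, and read by membrane-potential dye fluorescence. IC50 was taken versus DMSO.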
A general note: Cyclic AMP is a second messenger, typically raised through Gs and lowered through Gi signalling.

The target in the next assay is T2, human EP4 (EP4R) (Homo sapiens, UniProt P35408).
T2 construct: Cayman Chemical (Human EP4 Reporter Assay Kit)
Kind of assay: EP4 antagonist assay (HEK-293 CNG membrane potential cAMP assay / 293T SEAP reporter assay, PGE2-stimulated). It is filed as cell-based. The note with it: EP4 antagonist activity; concentration for inhibition of signal compared to DMSO. The text has this:
1. The HEK-293 CNG (Cyclic Nucleotide Gated) cell line expressing a modified CNG channel that leads to cell membrane depolarization in response to elevated intracellular cAMP levels, which can be measured using a fluorescent membrane potential dye, was engineered to express human EP2 (PTGER2) or EP4 (EP4R). The resulting cell line ACTOne™ PTGER2 or ACTOne™ EP4R as well as the fluorescent membrane potential dye were purchased from eEnzyme (Gaithersburg, MD, US) and used in this assay. Briefly, cells were plated at 1.2×10^4 cells/well in 20 μL DMEM supplemented with 2% Fetal Bovine Serum (FBS, VWR International), 1x Penicillin/Streptomycin (GenClone), 0.2 μg/mL puromycin (InvivoGen) and 50 μg/mL G418 (InvivoGen) on a 384 well plate (Greiner). The next day, cells were dye-loaded with 20 μL/well of 1x Dye-loading solution (eENZYME) following the manufacturer's instruction. After 2 hours of incubation at room temperature (RT) in the dark, a pre-read was made to obtain the background signals using CLARIOstar plate reader (BMG LABTECH, Germany) with the following filter settings: excitation=530/20 nm, emission=590/20 nm. Next, a serial dilution of compound (plus a DMSO control) were added to the plate (5 μL/well) and the reaction was incubated at RT for 15 min before adding 5 μL of PGE2 to every well for a final concentration of 5 nM. All wells were duplicated. The plate was then further incubated at RT for 30 min prior to a final read with the same machine settings. Background-subtracted signals were used to calculate IC50 values.
2. Human EP2 and EP4 Reporter Assay Kits were purchased from Cayman Chemical (Ann Arbor, MI, USA). The assay was performed following the provided User Manual. Briefly, a reverse transfection was performed by seeding 6.0×10^4 of 293T cells (ATCC) to each well of the provided Strip Plate coated with a proprietary transfection complex containing DNA constructs for expressing human EP2 or EP4 and a cAMP response element regulated secreted alkaline phosphatase (SEAP) reporter, in 200 μL DMEM supplemented with 2% FBS and incubated for 20-24 hours at 37° C. with 5% CO2. After the incubation, the culture medium was carefully removed, and the cells were replenished with 150 μL pre-warmed serum-free medium. PGE2 and test compounds were prepared together at 4x the desired final concentration, and 50 μL was added to each assigned well with the final concentration of 13 nM and 2 nM PGE2 for EP2 and EP4 assay, respectively. After 6-8 hours of incubation, 10 μL media from each well was transferred to corresponding well of a new plate, which was then sealed and incubated at 65° C. for 30 min. The plate was then cooled down to RT and 50 μL SEAP substrate was added to each well. Luminescence signal was measured using a CLARIOstar plate reader.
The IC50 value was determined as the concentration for […] inhibition of signal compared to DMSO (A: IC50≤100 nM; B: IC50 between 100 nM and 1,000 nM; C: IC50≥1,000 nM).

T2 sequence (P35408 whole entry): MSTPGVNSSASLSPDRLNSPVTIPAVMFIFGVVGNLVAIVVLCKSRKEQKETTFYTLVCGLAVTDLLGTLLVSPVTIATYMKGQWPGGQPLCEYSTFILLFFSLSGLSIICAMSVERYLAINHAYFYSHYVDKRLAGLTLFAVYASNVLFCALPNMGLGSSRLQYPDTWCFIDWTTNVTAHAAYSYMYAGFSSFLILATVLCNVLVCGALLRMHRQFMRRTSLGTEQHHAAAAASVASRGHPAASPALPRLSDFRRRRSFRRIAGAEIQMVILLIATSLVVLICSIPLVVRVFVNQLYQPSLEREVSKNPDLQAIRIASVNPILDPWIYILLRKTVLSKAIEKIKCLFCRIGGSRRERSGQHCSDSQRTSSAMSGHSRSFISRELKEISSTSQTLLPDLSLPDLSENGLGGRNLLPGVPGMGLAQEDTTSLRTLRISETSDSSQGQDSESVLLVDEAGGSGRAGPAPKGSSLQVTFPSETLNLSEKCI
T1 sequence (P43116 whole entry): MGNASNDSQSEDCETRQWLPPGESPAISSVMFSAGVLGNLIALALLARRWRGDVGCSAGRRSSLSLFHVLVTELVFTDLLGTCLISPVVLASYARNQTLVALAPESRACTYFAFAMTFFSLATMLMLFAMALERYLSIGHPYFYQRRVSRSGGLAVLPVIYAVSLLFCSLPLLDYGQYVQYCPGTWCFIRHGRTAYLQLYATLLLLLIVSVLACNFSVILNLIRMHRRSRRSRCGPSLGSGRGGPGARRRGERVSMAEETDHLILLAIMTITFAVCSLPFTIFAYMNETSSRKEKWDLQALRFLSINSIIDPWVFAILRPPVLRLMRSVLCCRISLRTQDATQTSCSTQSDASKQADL

As to `O=C(O)c1ccc(CNC(=O)c2cc(-c3ccc(F)cc3)cc3ccn(Cc4cccc(Cl)c4)c23)cc1` [Example 107, 4-((1-(3-chlorobenzyl)-5-(4-fluorophenyl)-1H-indole-7-carboxamido)methyl)benzoic acid], the half-maximal inhibitory concentration (IC50) on human EP2 (PTGER2) is under 100 nM; against human EP4 (EP4R), at most 100 nM.
With `N#Cc1cccc(-c2cc(C(=O)NCc3ccc(C(=O)O)cc3)c3c(Sc4ccc(C(F)(F)F)cc4)c[nH]c3c2)c1` [Example 117, 4-((6-(3-cyanophenyl)-3-((4-(trifluoromethyl)phenyl)thio)-1H-indole-4-carboxamido)methyl)benzoic acid], the IC50 at human EP2 (PTGER2) is under 100 nM; against human EP4 (EP4R) it was at most 100 nM.
In the case of `O=C(O)c1ccc(CNC(=O)c2cc(-c3ccc(F)cc3)cc3ccn(Cc4cccc(C(F)(F)F)c4)c23)cc1` [Example 124, 4-((5-(4-fluorophenyl)-1-(3-(trifluoromethyl)benzyl)-1H-indole-7-carboxamido)methyl)benzoic acid], the half-maximal inhibitory concentration (IC50) was under 100 nM at human EP2 (PTGER2) and at most 100 nM against human EP4 (EP4R).
The like results for `C[C@H](NC(=O)c1cc(-c2ccccc2)cc2ccn(Cc3cccc(C(F)(F)F)c3)c12)c1ccc(C(=O)O)cc1` [Example 129, (S)-4-(1-(5-phenyl-1-(3-(trifluoromethyl)benzyl)-1H-indole-7-carboxamido)ethyl)benzoic acid] were, in that order, under 100 nM and at most 100 nM.
On the same counts, the results for `C[C@H](NC(=O)c1cc(-c2ccc(F)cc2)cc2cnn(Cc3cccc(C(F)(F)F)c3)c12)c1ccc(C(=O)O)cc1` [Example 134, (S)-4-(1-(5-(4-fluorophenyl)-1-(3-(trifluoromethyl)benzyl)-1H-indazole-7-carboxamido)ethyl)benzoic acid] are under 100 nM and at most 100 nM.
The like results for `C[C@H](NC(=O)c1cc(-c2ccccc2)cc2cnn(Cc3cccc(C(F)(F)F)c3)c12)c1ccc(C(=O)O)cc1` [Example 135, (S)-4-(1-(5-phenyl-1-(3-(trifluoromethyl)benzyl)-1H-indazole-7-carboxamido)ethyl)benzoic acid] were, in that order, under 100 nM and at most 100 nM.
As to `C[C@H](NC(=O)c1cc(-c2cc(F)cc(F)c2)cc2cnn(Cc3cccc(C(F)(F)F)c3)c12)c1ccc(C(=O)O)cc1` [Example 136, (S)-4-(1-(5-(3,5-difluorophenyl)-1-(3-(trifluoromethyl)benzyl)-1H-indazole-7-carboxamido)ethyl)benzoic acid], the 50% inhibitory concentration (IC50) is under 100 nM at human EP2 (PTGER2) and at most 100 nM at human EP4 (EP4R).
The like results for `O=C(O)c1ccc(CNC(=O)c2cc(-c3ccccc3)cc3cnn(Cc4cccc(C(F)(F)F)c4)c23)cc1` [Example 137, 4-((5-phenyl-1-(3-(trifluoromethyl)benzyl)-1H-indazole-7-carboxamido)methyl)benzoic acid] were, in that order, under 100 nM and at most 100 nM.
Regarding `O=C(O)c1ccc(CNC(=O)c2cc(-c3ccccc3)cc3ccn(Cc4ccc5ccccc5n4)c23)cc1` [Example 141, 4-((5-phenyl-1-(quinolin-2-ylmethyl)-1H-indole-7-carboxamido)methyl)benzoic acid], the half-inhibitory concentration (IC50) was under 100 nM on human EP2 (PTGER2) and at most 100 nM against human EP4 (EP4R).
The like results for `O=C(O)c1ccc(CNC(=O)c2cc(-c3ccccc3)cc3ccn(Cc4ccc(-c5ccccc5)cc4)c23)cc1` [Example 147, 4-((1-([1,1′-biphenyl]-4-ylmethyl)-5-phenyl-1H-indole-7-carboxamido)methyl)benzoic acid] were, in that order, under 100 nM and at most 100 nM.
For the molecule `O=C(O)c1ccc(CNC(=O)c2cc(-c3cc(F)cc(F)c3)cc3ccn(Cc4ccc(-c5ccccc5)cc4)c23)cc1` [Example 149, 4-((1-([1,1′-biphenyl]-4-ylmethyl)-5-(3,5-difluorophenyl)-1H-indole-7-carboxamido)methyl)benzoic acid], the concentration for half-maximal inhibition (IC50) against human EP2 (PTGER2) was under 100 nM; at human EP4 (EP4R), at most 100 nM.
On the same counts, the results for `C[C@H](NC(=O)c1cc(-c2ccccc2)cc2ccn(Cc3ccc(-c4ccccc4)cc3)c12)c1ccc(C(=O)O)cc1` [Example 150, (S)-4-(1-(1-([1,1′-biphenyl]-4-ylmethyl)-5-phenyl-1H-indole-7-carboxamido)ethyl)benzoic acid] are under 100 nM and at most 100 nM.
Regarding `C[C@H](NC(=O)c1cc(-c2ccc(F)cc2)cc2ccn(Cc3ccc(-c4ccccc4)cc3)c12)c1ccc(C(=O)O)cc1` [Example 151, (S)-4-(1-(1-([1,1′-biphenyl]-4-ylmethyl)-5-(4-fluorophenyl)-1H-indole-7-carboxamido)ethyl)benzoic acid], the IC50 is under 100 nM at human EP2 (PTGER2) and at most 100 nM against human EP4 (EP4R).
As to `C[C@H](NC(=O)c1cc(-c2cc(F)cc(F)c2)cc2ccn(Cc3ccc(-c4ccccc4)cc3)c12)c1ccc(C(=O)O)cc1` [Example 152, (S)-4-(1-(1-([1,1′-biphenyl]-4-ylmethyl)-5-(3,5-difluorophenyl)-1H-indole-7-carboxamido)ethyl)benzoic acid], the IC50 is under 100 nM against human EP2 (PTGER2) and at most 100 nM on human EP4 (EP4R).
The like results for `O=C(O)c1ccc(CNC(=O)c2ccc(Nc3ccccc3)c3ccn(Cc4ccc(-c5ccccc5)cc4)c23)cc1` [Example 154, 4-((1-([1,1′-biphenyl]-4-ylmethyl)-4-(phenylamino)-1H-indole-7-carboxamido)methyl) benzoic acid] were, in that order, under 100 nM and at most 100 nM.
`O=C(O)c1ccc(CNC(=O)c2ccc(Nc3ccccc3)c3ccn(Cc4ccc5ccccc5c4)c23)cc1` [Example 156, 4-((1-(naphthalen-2-ylmethyl)-4-(phenylamino)-1H-indole-7-carboxamido)methyl)benzoic acid]: the concentration for half-maximal inhibition (IC50) is under 100 nM against human EP2 (PTGER2) and at most 100 nM at human EP4 (EP4R).
The like results for `O=C(O)c1ccc(CNC(=O)c2cc(-c3ccccc3)cc3cnn(Cc4ccc5ccccc5c4)c23)cc1` [Example 165, 4-((1-(naphthalen-2-ylmethyl)-5-phenyl-1H-indazole-7-carboxamido)methyl)benzoic acid] were, in that order, under 100 nM and at most 100 nM.
As to `O=C(O)c1ccc(CNC(=O)c2cc(-c3ccc(F)cc3)cc3cnn(Cc4ccc5ccccc5c4)c23)cc1` [Example 166, 4-((5-(4-fluorophenyl)-1-(naphthalen-2-ylmethyl)-1H-indazole-7-carboxamido)methyl)benzoic acid], the IC50 against human EP2 (PTGER2) was under 100 nM; against human EP4 (EP4R) it was at most 100 nM.
On the same counts, the results for `C[C@H](NC(=O)c1cc(-c2ccc(F)cc2)cc2cnn(Cc3ccc4ccccc4c3)c12)c1ccc(C(=O)O)cc1` [Example 168, (S)-4-(1-(5-(4-fluorophenyl)-1-(naphthalen-2-ylmethyl)-1H-indazole-7-carboxamido)ethyl)benzoic acid] are under 100 nM and at most 100 nM.
The like results for `C[C@H](NC(=O)c1cc(-c2cc(F)cc(F)c2)cc2cnn(Cc3ccc4ccccc4c3)c12)c1ccc(C(=O)O)cc1` [Example 169, (S)-4-(1-(5-(3,5-difluorophenyl)-1-(naphthalen-2-ylmethyl)-1H-indazole-7-carboxamido)ethyl)benzoic acid] were, in that order, under 100 nM and at most 100 nM.
The like results for `O=C(O)c1ccc(CNC(=O)c2cc(-c3ccc(F)cc3)cc3nnn(Cc4ccc(C(F)(F)F)cc4)c23)cc1` [Example 175] were, in that order, under 100 nM and at most 100 nM.
Take `O=C(O)c1ccc(CNC(=O)c2cc(-c3cc(F)cc(F)c3)cc3nnn(Cc4ccc(C(F)(F)F)cc4)c23)cc1` [Example 176, ((5-(3,5-difluorophenyl)-1-(4-(trifluoromethyl)benzyl)-1H-benzo[d][1,2,3]triazole-7-carboxamido)methyl)benzoic acid]: the 50% inhibitory concentration (IC50) was under 100 nM at human EP2 (PTGER2) and at most 100 nM against human EP4 (EP4R).

Usually IC50 stands for the point on the concentration scale where inhibition reaches its midpoint. High values mean weaker potency in that assay, low ones greater potency in that assay.

The values above are taken from patent publication US20250179017A1 (GUANGDONG NEWOPP BIOPHARMACEUTICALS CO., LTD., priority 2022, published 2025).
